Measurements: patent publication US5591773A, “Inhibition of cataract formation, diseases resulting from oxidative stress, and HIV replication by caffeic acid esters” (priority 1994, dated 1997)

Key:
[1] = tested on: TPA-induced H2O2 production in mouse skin; assay: TPA-induced H2O2 production in skin of SENCAR mice; assay type: in vivo
Experimental: (§1) FIGS. 2A-2D. CAPE-mediated inhibition of TPA-induced oxidative processes in SENCAR mice. Mice were topically treated with 6.5 nmol CAPE 30 min prior to 6.5 nmol TPA, and this regimen was repeated 20 h later. Mice were sacrificed 1 h after the last treatment and the skin removed for determination of: (FIG. 2A) PMN infiltration (by measuring myeloperoxidase (MPO)); (FIG. 2B) H2 O2; (FIG. 2C) HMdUrd (HMdU); and (FIG. 2D) 8-OHdGua (8-OHdG), according to procedures described in the "Experimental Details" Section, infra. .quadrature., controls treated with acetone in place of CAPE and TPA; , treatment with acetone followed by TPA; .box-solid., treatment with CAPE followed by TPA. Results are expressed as mean ± SE (bars) from two experiments (2 mice/experiment) in the CAPE series. Data for acetone (ACT)- and TPA-treated mean values were collected from over 20 experiments.
(§2) C) MPO, H2 O2, and Oxidized DNA Bases. SENCAR mice were pretreated with CAPE for 30 min; then 6.5 nmol (4 μg) TPA/mouse topically applied to the dorsal skin. After 20 h, the CAPE and TPA treatment (1x) was repeated (2x treatment). One h after the second treatment, the mice were sacrificed by cervical dislocation, and 12.5-mm punches were obtained to be used separately for MPO and H2 O2 determinations. The remainder of the treated mouse skin or the combined skins from two mice were used for separation of epidermal cells. This was done by heating the skin at 55° C. for 30 s followed by rapid immersion into an ice-cold water bath (45). After the epidermis was scraped off, the presence of oxidized DNA base derivatives was measured in the epidermal DNA. All of these end points were analyzed by published procedures and are briefly described below.
Punches used for H2 O2 determination were immediately minced with scissors in cold 50 mM phosphate buffer, pH 7.0, containing 10 mM azide that is needed for inhibition of catalase. They were then homogenized, and centrifuged at 4° C. and the supernatants were stored at -80° C. for up to 1 week. H2 O2 was measured in freshly thawed supernatants using horseradish peroxidase-mediated oxidation of phenol red (21), and the results are expressed as nmol H2 O2 /cm^2 /10-min incubation. Although organic hydroperoxides also can be generated under these conditions (45), we find that H2 O2 constitutes a great majority of the oxidants generated because 60-85% of the oxidants produced are catalase inhibitable (21).
(§3) ^a Mice were treated as described in the legend to FIG. 2, except tha

HMdUrd in epidermal DNA = assay: TPA-induced HMdUrd formation in epidermal DNA of SENCAR mice; assay type: in vivo
Experimental: as §1, §2
(§4) The epidermis was homogenized and lysed, and the proteins and RNA were removed by proteinase K and RNase digestions, respectively (20). The DNA was separated and purified on A.S.A.P. columns (Boehringer-Mannheim Biochemicals) and precipitated with isopropyl alcohol.
(§5) The pellet was then washed with 70% ethyl alcohol, dried, and dissolved in 10 mM Tris.cndot.HCl-100 mM NaCl buffer, pH 7.0, according to the manufacturer's procedure. The DNA was sheared and enzymatically digested to nucleosides, and the hydrolysates were separated by HPLC (Beckman, Model 344) on an ODS column (Altex, 1×25 cm; 5 μm particle size) (50). The fractions that eluted after 30 ml were combined (excluding those containing normal nucleosides) and dried. The oxidized nucleosides were detected by ^3 H-postlabeling with [^3 H]acetic anhydride, followed by HPLC analysis of ^3 H-containing acetates in the presence of marker acetates (50). The results are presented as the number of oxidized nucleosides/10^4 normal bases, unless otherwise stated.
as §3

[2] = tested on: 8-OHdGua in epidermal DNA; assay: TPA-induced 8-OHdGua formation in epidermal DNA of SENCAR mice; assay type: in vivo
Experimental: as §1, §2, §4, §5, §3

[3] = tested on: TPA-induced PMN infiltration in SENCAR mouse ears (MPO); assay: TPA-induced PMN infiltration (MPO) in mouse ears; assay type: in vivo, SENCAR mice; conditions: for MPO in mouse ears, TPA only: TPA 0.4 nmol/ear, 5 h
Experimental: FIG. 3. Effect of CAPE on TPA-induced PMN infiltration and edema in SENCAR mouse ears. These were paired experiments, in which both ears of each mouse (8-9/group) were treated with 0.4 nmol TPA±CAPE in 20 μl acetone, and the mice were sacrificed 5 h later. (A) One ear was frozen for subsequent determination of MPO (a measure of PMN infiltration). (B) A punch (6 mm diameter) was taken from the second ear and weighed to measure edematous response (weight of sample minus weight of control). (A) Ears of each group (7-9/group) were separately minced and homogenized under different conditions as described in the "Experimental Details" Section, infra. MPO was determined in duplicate. MPO was undetectable in acetone controls and was 4.13±0.0 units/mg protein and 1.18±0.1 units/mg protein in the 2 homogenates of TPA-only-treated mice. CAPE-mediated inhibition was calculated versus the appropriate TPA-only sample, which was homogenized the same way. (B) Weights of ear punches (8-9/group, each determined separately). Acetone controls, 7.2±0.1 mg; TPA in acetone, 16.7±0.7 mg.
B) Edema Determination. Both ears of SENCAR mice (7-9 mice/group) were treated with 0.4 nmol TPA in 20 μl acetone alone or together with added 0.1 nmol, 0.3 nmol, or 1 μmol CAPE. […] The mice were sacrificed by cervical dislocation 5 h after treatment, and edema was measured on one mouse ear, while the second ear was immediately frozen and later analyzed for PMN infiltration by quantifying myeloperoxidase (MPO) (see below). Ear edema (increased weight of ear punches) was determined as previously described (24). Edema was expressed as mg/6 mm (diameter) ear punch±SE.
The assay for MPO was carried out according to the procedure of Metcalf et al. (53) with some modifications (20), and the results are expressed as units/cm^2, where a unit is defined as that degrading 1 μmol H2 O2 /min at 25° C. The presence of MPO in the mouse ears was measured in the homogenates. […] Each homogenate was analyzed in duplicate and the results are expressed as mean MPO (units/mg protein) ±SE for each of the homogenates.

[4] = CAPE 6.5 nmol, TPA 6.5 nmol, 2x

Compound | H2O2 ([1]; TPA alone, 6.5 nmol, SE 0.7 on next line) | HMdUrd/10^4 bases (HMdUrd in epidermal DNA; TPA alone, 6.5 nmol, SE 6.4 on next line) | 8-OHdGua/10^5 bases ([2]; TPA alone, 6.5 nmol, SE 6.3 on next line) | MPO in mouse ears, TPA only ([3]; first of 2 homogenates) | MPO in mouse ears, TPA only ([3]; second of 2 homogenates) | H2O2 ([1]; CAPE 6.5 nmol then TPA 6.5 nmol, 2x, (5 experiments), SE 2.2 on next line) | inhibition of TPA-induced H2O2 formation ([1]; CAPE 6.5 nmol, TPA 6.5 nmol, 2x, SENCAR mouse skin) | H2O2 ([1]; CAPE 650 nmol then TPA 6.5 nmol, 2x, (5 experiments), SE 0.6 on next line) | H2O2 levels at high dose (in words) ([1]; CAPE 650 nmol/treatment vs 6.5 nmol) | HMdUrd/10^4 bases (HMdUrd in epidermal DNA; CAPE 6.5 nmol then TPA 6.5 nmol, 2x, (2 experiments), SE 0.6 on next line) | HMdUrd levels (in words) (HMdUrd in epidermal DNA; [4]) | decline of HMdUrd formation (HMdUrd in epidermal DNA; [4]) | HMdUrd/10^4 bases (HMdUrd in epidermal DNA; CAPE 650 nmol then TPA 6.5 nmol, 2x, (2 experiments), SE 10.5 on next line) | 8-OHdGua/10^5 bases ([2]; CAPE 6.5 nmol then TPA 6.5 nmol, 2x, (2 experiments), SE 0.8 on next line) | 8-OHdGua suppression below acetone controls (basal levels) [2, 4] | decline of 8-OHdGua formation [2, 4] | 8-OHdGua/10^5 bases ([2]; CAPE 650 nmol then TPA 6.5 nmol, 2x, (2 experiments), SE 1.1 on next line) | inhibition of inflammatory processes, particularly oxidation of bases in DNA (in words) ([2]; compared with untreated blanks) | suppression of TPA-induced PMN infiltration, ear ([3]; CAPE 0.1 nmol/ear, TPA 0.4 nmol)
CCCCCCCCCCCCCC(=O)O[C@@H]1[C@@H](C)[C@@]2(O)[C@@H](C=C(CO)C[C@]3(O)C(=O)C(C)=C[C@@H]23)[C@@H]2C(C)(C)[C@]12OC(C)=O [TPA, 12-O-tetradecanoylphorbol-13-acetate] | 31.5 nmol/cm^2 skin | 39.4 /10^4 bases | 11.8 /10^5 bases | 4.13±0.0 units/mg protein | 1.18±0.1 units/mg protein | – | – | – | – | – | – | – | – | – | – | – | – | – | –
O=C(/C=C/c1ccc(O)c(O)c1)OCCc1ccccc1 [CAPE, Caffeic acid phenethyl ester] | – | – | – | – | – | 15.7 nmol/cm^2 skin | 86% | 11.6 nmol/cm^2 skin | further decreased | 13.1 /10^4 bases | below the acetone/acetone controls | 115% | 30.5 /10^4 bases | 1.4 /10^5 bases | 70% | ~170% | 9.4 /10^5 bases | down to the background levels represented by untreated blanks | ~50%
